# Laboratory results published in patent US5559025A (priority 1991, dated 1996).
# “Also recorded” adds a separate entry of the source. Like-named read-outs stand apart in the source and are kept apart here. *1 amine or outer side, *2 acyl side, *3 side chain or, on linkers, in order; H or OH if unused. Where a SMILES comes first, the peptide text is derived from it. CO = O=C([*:1])[*:2]
# How the values were obtained:
# Assay type in all cases: biochemical
# HRV2 2A proteinase [1] = target: T1, HRV2 2A proteinase (Human rhinovirus 2, UniProt P04936)
# Target sequence in this assay (P04936 851-992 limits assumed): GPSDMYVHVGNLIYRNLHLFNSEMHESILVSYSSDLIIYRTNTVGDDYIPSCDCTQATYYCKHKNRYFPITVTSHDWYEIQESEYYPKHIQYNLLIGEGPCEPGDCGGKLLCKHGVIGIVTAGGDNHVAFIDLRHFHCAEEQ
# HRV2 2A proteinase [2] = target: T1, HRV2 2A proteinase; conditions: for cleavability by HRV2 2A (in words): trans-cleavage assay, 34° C., up to 32 minutes
# HRV2 2A proteinase [3] = target: T1, HRV2 2A proteinase; assay: Competition of non-cleavable or slightly cleavable peptides with P89 cleaving
# HRV2 2A proteinase [4] = target: T1, HRV2 2A proteinase; assay: Km determination with peptide substrate P89 (trans-cleavage assays); conditions: peptide substrate P89, 15° C., 50 to 500 μmol/l, repeated three times with various 2A preparations
# Description: […] For competitive or inhibitory studies, an additional 5 μl of solution containing the substance for competition or inhibition are added. The reaction is stopped by adding an equal volume of a 0.5M HClO4 solution. The samples are cooled to 0° C. for 10 minutes or frozen overnight at -20° C. After centrifugation (Eppendorf centrifuge, 10 min, 4° C.) an equal volume of a 1.4M K2 HPO4 solution is added. The samples are left to stand for 5 minutes at ambient temperature and the precipitate is separated off by centrifuging. […] The reaction products are detected by UV absorption at 214 and 280 nm. The course of the reaction over a period of time (% cleavage of the peptide substrate) is determined by "reverse phase" HPLC. The area of the newly formed peptide peak corresponding to the quantity of the carboxy- and amino terminal cleavage products is determined for each case and compared with the area of the uncleaved P89. The cleavage products are determined either by comigration with the corresponding reference peptides and amino acid analysis or by protein sequencing (Hunkapillar and Hood, 1983, loc. cit.). […]
# In order to identify the Km value for the Wild type substrate P89 a set of trans-cleavage assays are carried out at 15° C. with various P89 substrate concentrations (between 50 and 500 μmol/l). […] For each substrate concentration the reaction speed was determined (% cleavage of P89). […]
# [5] = inhibitor added before start of reaction, repeated three times
compound,measurement,setting,value
"O[C@H](CS)[C@H](O)CS (racemic) [DTT, Dithiothreitol]",effect on the activity of 2A relative to peptide P89,HRV2 2A proteinase [1]; [5],no effect
"c1cnc2c(c1)ccc1cccnc12 [1,10-phenanthrolene]",effect on the activity of 2A relative to peptide P89,HRV2 2A proteinase [1]; [5],a certain inhibiting effect at higher concentrations
"O=c1oc(Cl)c(Cl)c2ccccc12 [3,4-dichloroisocumarin]",effect on the activity of 2A relative to peptide P89,HRV2 2A proteinase [1]; [5],no activity
"N=C(N)c1ccc(CS(=O)(=O)F)cc1 [APMSF, 4-(Amidinophenyl)methanesulphonylfluoride]",effect on the activity of 2A relative to peptide P89,HRV2 2A proteinase [1]; [5],no activity
CC(C)CC(NC(=O)C1OC1C(=O)O)C(=O)NCCCCNC(=N)N (stereo not drawn) [E-64],effect on the activity of 2A relative to peptide P89,HRV2 2A proteinase [1]; [5],no effect
O=C(O)CN(CCN(CC(=O)O)CC(=O)O)CC(=O)O [EDTA],effect on the activity of 2A relative to peptide P89,HRV2 2A proteinase [1],a certain inhibiting effect at higher concentrations
CC(=O)N[C@@H](CC(C)C)C(=O)N[C@@H](CC(C)C)C(=O)N[C@H](C=O)CCCNC(=N)N [Leupeptine],effect on the activity of 2A relative to peptide P89,HRV2 2A proteinase [1]; [5],ineffectiveness
CCN1C(=O)C=CC1=O [N-ethylmaleimide],effect on the activity of 2A relative to peptide P89,HRV2 2A proteinase [1]; [5],strongly inhibit
"Cc1ccc(S(=O)(=O)N[C@@H](CCCCN)C(=O)CCl)cc1 [TLCK, Tosyllysylchloromethylketone]",effect on the activity of 2A relative to peptide P89,HRV2 2A proteinase [1]; [5],only effective at higher concentrations
"Cc1ccc(S(=O)(=O)N[C@@H](Cc2ccccc2)C(=O)CCl)cc1 [TPCK, Tosylphenylalanylchloromethylketone]",effect on the activity of 2A relative to peptide P89,HRV2 2A proteinase [1]; [5],only effective at higher concentrations
CC(C)[C@H](NC(=O)[C@H](CCCNC(=N)N)NC(=O)N[C@@H](Cc1ccccc1)C(=O)O)C(=O)N[C@H](C=O)CCCNC(=N)N [antipain] ({Phe-CO}-Arg-Val-Arg-aldehyde),effect on the activity of 2A relative to peptide P89,HRV2 2A proteinase [1]; [5],highly effective
N[C@@H](CS)C(=O)O [cysteine],effect on the activity of 2A relative to peptide P89,HRV2 2A proteinase [1]; [5],no effect
CC(C)C[C@H](NC(=O)N[C@H](C(=O)N[C@@H](CCC(N)=O)C(=O)N[C@@H](C)C=O)[C@@H]1CCNC(=N)N1)C(=O)O [elastatinal],effect on the activity of 2A relative to peptide P89,HRV2 2A proteinase [1]; [5],highly effective
NC(=O)CI [iodacetamide],effect on the activity of 2A relative to peptide P89,HRV2 2A proteinase [1]; [5],strongly inhibit
"Ac-IITTAGPSDM-NH2 [P145, IITTAGPSDM]",cleavability by HRV2 2A (in words),HRV2 2A proteinase [2],cannot be cleaved
same,ability to act as competitor/inhibitor of P89 cleaving,HRV2 2A proteinase [3],became competitive; also recorded: behaved competitively; also recorded: competitive inhibitors
"Ac-ITTAGPSD-NH2 [WTD8, ITTAGPSD]",cleavability by HRV2 2A (in words),HRV2 2A proteinase [2],cannot be cleaved
same,ability to act as competitor/inhibitor of P89 cleaving,HRV2 2A proteinase [3],became competitive; also recorded: behaved competitively; also recorded: competitive inhibitors
Ac-ITTAGPSDMYVH-NH2 [D],cleavability by HRV2 2A (in words),HRV2 2A proteinase [2],fall in cleavability of one order of magnitude; also recorded: reduction in the cleavability by one order of magnitude
Ac-TRPIITTAG-NH2 [WTN9],% cleavage compared with P89,HRV2 2A proteinase [2],10%
same,cleavability by HRV2 2A (in words),HRV2 2A proteinase [2],sufficient for a cleavage
"TRIITSAGPSDMYV [B4, Thr for Ser at position P2]",ability to act as competitor/inhibitor of P89 cleaving,HRV2 2A proteinase [3],became competitive; also recorded: behaved competitively
"TRPIITNAGPSDMYV [B8, Thr for Asn at position P2]",ability to act as competitor/inhibitor of P89 cleaving,HRV2 2A proteinase [3],became competitive; also recorded: behaved competitively
"TRPIITTNGPSDMYV [G5, Ala for Asn at position P1]",cleavability by HRV2 2A (in words),HRV2 2A proteinase [2],dramatically reduced cleavability
same,ability to act as competitor/inhibitor of P89 cleaving,HRV2 2A proteinase [3],became competitive; also recorded: behaved competitively
"TRPIITTPSDMYVH [AB2, deleted Wild type substrate, missing cleavage site]",cleavability by HRV2 2A (in words),HRV2 2A proteinase [2],No cleaving (nor any alternative) is observed; also recorded: No cleavage (nor any alternative cleavage) was observed; also recorded: cannot be cleaved
same,ability to act as competitor/inhibitor of P89 cleaving,HRV2 2A proteinase [3],became competitive; also recorded: behaved competitively; also recorded: competitive inhibitors
"acetyl-TRPIITTA*GPSDMYVH-NH2 (Ac-TRPIITTAGPSDMYVH-NH2; not fully specified (residue 8); printed as acetyl-TRPIITTA*GPSDMYVH-NH2) [P89, reference compound]",Km,HRV2 2A proteinase [4],540 µM
same,cleavability by HRV2 2A (in words),HRV2 2A proteinase [2],specifically cleaved
chymostatin,effect on the activity of 2A relative to peptide P89,HRV2 2A proteinase [1]; [5],highly effective
